# Publication PMC3059997, “Exploring Indirect Sources of Human Exposure to Perfluoroalkyl Carboxylates (PFCAs): Evaluating Uptake, Elimination, and Biotransformation of Polyfluoroalkyl Phosphate Esters (PAPs) in the Rat” (Environmental Health Perspectives, 2010)
# Columns and labels:
# [1] = Uptake experiment: monoPAP mixture by oral gavage, analytes in whole blood; type: in vivo, Sprague-Dawley rats
# Protocol: (§1) This research was conducted under an animal use protocol approved by the University of Toronto Animal Care Committee. All animals were treated humanely and with regard for alleviation of suffering. Sprague-Dawley rats were obtained from Charles River Laboratories Inc. (Sherbrooke, QC, Canada) The animals were singly housed and exposed to a 12/12 hr light/dark cycle with food and water available ad libitum. Blood samples were collected from the saphenous vein using Microvette CB 300 vials (Sarstedt AG & Co., Montreal, QC, Canada) embedded with lithium-heparin as an anticoagulant. Whole-blood samples were stored at −20°C, and urine and feces samples were stored at 4°C.
# (§2) Two groups of four 8-week-old male rats were administered a mixture of 4:2, 6:2, 8:2, and 10:2 diPAP or monoPAP, respectively, each at about 50 mg/kg, at 4 mL/kg by oral gavage without prior fasting. […] Two control male rats were administered clean vehicle at 4 mL/kg [for details, see Supplemental Material, Table 3 (doi:10.1289/ehp.1002409)].
# (§3) Blood was collected from all animals 3 days before dosing to establish background contamination. For the uptake experiment, blood samples were collected at 1, 3, and 6 hr and 1, 2, 4, 7, 10, 14, 18, and 22 days after dosing. For the elimination experiment, blood samples were collected at 2, 4, and 6 hr and 1, 2, 4, 8, 11, 15, and 18 days after dosing. On the final sampling day, the animals were sacrificed by carbon dioxide asphyxiation, and about 10 mL of blood was collected by cardiac puncture into a BD Vacutainer embedded with lithium-heparin.
# (§4) The compounds of interest fall into four categories: a) the diPAP and monoPAP parent compounds, b) the saturated and unsaturated fluorotelomer carboxylic acid (FTCA and FTUCA) metabolic intermediates, c) the FTOH-sulfate and FTOH-glucuronide phase II metabolites, and d) the final PFCA biotransformation products [see Supplemental Material, Table 1 (doi:10.1289/ehp.1002409)]. We analyzed these compounds in whole blood, urine, and feces samples. For full analytical details, see Supplemental Material. All PFCAs, FTCAs, FTUCAs, and phase II metabolites were quantified by internal calibration. Because internal standards were not available, monoPAPs and diPAPs were quantified by standard addition. We performed spike and recovery experments to validate the extraction and quantification techniques used (for details, see Supplemental Material).
# (§5) Analyte and matrix specific limits of detection (LODs) and limits of quantification (LOQs) are provided in Supplemental Material (doi:10.1289/ehp.1002409). For the purpose of calculating means, values < LOD were assigned a value of zero, and values < LOQ but > LOD were used unaltered but are indicated by asterisks in figures and parentheses in tables. Values are presented using the arithmetic mean ± SE. Full data sets are available in Supplemental Material.
# [2] = Elimination experiment: monoPAP mixture by IV injection, analytes in whole blood; type: in vivo, Sprague-Dawley rats; conditions: for Cmax / Tmax / Half-life: monoPAP IV dose; for Cmax / Tmax: whole blood; for Half-life: about 15 mg/kg each, PFCA product in whole blood
# Protocol: as §1
# (§6) Two groups of four 8-week-old male rats were administered a mixture of 4:2, 6:2, 8:2, and 10:2 diPAP or monoPAP, respectively, each at about 15 mg/kg, at 2 mL/kg by intravenous (IV) injection into the lateral tail vein. The dosing vehicle was 50:50 propylene glycol:water. Two control male rats were administered clean vehicle at 2 mL/kg [for details see Supplemental Material, Table 3 (doi:10.1289/ehp.1002409)].
# as §3, §4, §5
# [3] = Renal elimination: analytes in urine collected in metabolic cages; type: in vivo, Sprague-Dawley rats; conditions: urine samples from all dosing regimes
# Protocol: as §1, with “4°C. […]” for “4°C.”
# as §4, with “For full analytical details, see Supplemental Material.” left out, “We performed spike and recovery experments to validate the extraction and quantification techniques used (for details, see Supplemental Material).” left out
# [4] = Elimination experiment: diPAP mixture by IV injection, analytes in whole blood; type: in vivo, Sprague-Dawley rats; conditions: for Half-life: about 15 mg/kg each
# Protocol: as §1, §6, §3, §4
# as §5, with “Material. […]” for “Material.”
# [5] = Uptake experiment: diPAP mixture by oral gavage, analytes in whole blood; type: in vivo, Sprague-Dawley rats; conditions: for Cmax / Tmax / Half-life: diPAP gavage dose, whole blood; for Cmax / Half-life: mean ± SE; for Cmax: values in parentheses < LOQ but > LOD; for Half-life: about 50 mg/kg each
# Protocol: as §1, §2, §3, §4
# as §5, with “Material. […]” for “Material.”
# [6] = parameters: method as in Chang et al. 2008; Ohmori et al. 2003; conditions: male rats; ref Chang et al. 2008; Ohmori et al. 2003; cited from earlier work
# [7] = diPAP IV dose, whole blood, mean ± SE, values in parentheses < LOQ but > LOD
# [8] = monoPAP gavage dose, whole blood
# [9] = monoPAP gavage dose, whole blood, values in parentheses < LOQ but > LOD
# [10] = diPAP IV dose, whole blood, mean ± SE
smiles,measurement,setting,value
O=S(=O)(O)OCCC(F)(F)C(F)(F)C(F)(F)C(F)(F)C(F)(F)C(F)(F)C(F)(F)C(F)(F)F [8:2 FTOH-sulfate],Detection in blood (time points),[1]; after monoPAP oral gavage,frequently detected between 6 hr and 2 days postdosing
O=S(=O)(O)OCCC(F)(F)C(F)(F)C(F)(F)C(F)(F)F [4:2 FTOH-sulfate],Detection in blood (time points),[2]; after monoPAP IV dosing,in the blood 2 hr after dosing
same,Observation in urine,[3],consistently observed
same,Detection in blood (time points),[4]; after IV diPAP dosing,in the blood 2 hr postdosing
"O=C(O)C(F)(F)C(F)(F)C(F)(F)C(F)(F)F [PFPeA, perfluoropentanoic acid]",Cmax,[2],2.1 ± 0.8 ng/g
same,Tmax,[2],6 h
same,Tmax,"[4]; diPAP IV dose, whole blood",2 h
same,Cmax,[4]; [7],7.1 ± 0.6 ng/g
O=C(O)C=C(F)C(F)(F)C(F)(F)C(F)(F)C(F)(F)C(F)(F)F [6:2 FTUCA],Detection in blood (time points),"[5]; rat, in vivo, po","6 hr postdosing, but in only one animal"
same,Detection in blood (time points),"[2]; rat, in vivo, iv","observed in the 2, 4, and 6-hr time points"
O=C(O)[C@H]1O[C@@H](OCCC(F)(F)C(F)(F)C(F)(F)C(F)(F)C(F)(F)C(F)(F)F)[C@H](O)[C@@H](O)[C@@H]1O [6:2 FTOH-glucuronide],Detection in blood (time points),"[1]; rat, in vivo, po",observed at 2 hr and 6 hr postdosing
"O=C(O)C(F)(F)C(F)(F)C(F)(F)C(F)(F)C(F)(F)C(F)(F)F [PFHpA, perfluoroheptanoic acid]",Cmax,"[5]; male, Sprague-Dawley, rat, in vivo, po, 50 mg/kg, read-out: Cmax",2.6 ± 0.5 ng/g
same,Tmax,"[5]; male, Sprague-Dawley, rat, in vivo, po, 50 mg/kg, read-out: Tmax (converted)",24 h
same,Cmax,"[2]; male, Sprague-Dawley, rat, in vivo, 15 mg/kg, read-out: Cmax",2.3 ± 0.7 ng/g
same,Tmax,"[2]; male, Sprague-Dawley, rat, in vivo, 15 mg/kg, read-out: Tmax (converted)",24 h
same,Tmax,"[1]; male, Sprague-Dawley, rat, in vivo, po, 50 mg/kg, monoPAP gavage dose, whole blood, read-out: Tmax (converted)",24 h
same,Cmax,"[1]; male, Sprague-Dawley, rat, in vivo, po, 50 mg/kg, monoPAP gavage dose, whole blood, values in parentheses < LOQ but > LOD, read-out: Cmax",9 ± 2.2 ng/g
same,Cmax,"[4]; male, Sprague-Dawley, rat, in vivo, 15 mg/kg, diPAP IV dose, whole blood, mean ± SE, values in parentheses < LOQ but > LOD, read-out: Cmax",7.3 ± 0.6 ng/g
same,Tmax,"[4]; male, Sprague-Dawley, rat, in vivo, 15 mg/kg, diPAP IV dose, whole blood, read-out: Tmax (converted)",4 h
"O=C(O)C(F)(F)C(F)(F)C(F)(F)C(F)(F)C(F)(F)F [PFHxA, perfluorohexanoic acid]",Half-life,[5],101 ± 31.2 h
same,Tmax,[5],4 h
same,Cmax,[5],10 ± 1.2 ng/g
same,Serum half-lives,[6],on the order of hours
same,Half-life,[2],5.52 ± 5.52 h
same,Cmax,[2],5.6 ± 1.3 ng/g
same,Tmax,[2],4 h
same,Tmax,[1]; [8],4 h
same,Cmax,[1]; [9],7.4 ± 1.5 ng/g
same,Half-life,[4]; [10],43.2 ± 12.2 h
same,Tmax,"[4]; diPAP IV dose, whole blood",1 day days
same,Cmax (ng/g),[4]; [7],(3.0 ± 1.0) ^d ng/g
O=C(O)CC(F)(F)C(F)(F)C(F)(F)C(F)(F)C(F)(F)C(F)(F)F [6:2 FTCA],Detection in blood (time points),[5]; after diPAP oral gavage,"6 hr postdosing, but in only one animal"
same,Detection in blood (time points),[2]; after monoPAP IV dosing,2 hr postdosing
same,Detection in blood (time points),[1]; after monoPAP oral gavage,"blood samples taken 2, 4, and 6 hr postdosing"
"O=C(O)C(F)(F)C(F)(F)C(F)(F)C(F)(F)C(F)(F)C(F)(F)C(F)(F)C(F)(F)C(F)(F)F [PFDA, perfluorodecanoate]",Half-life,[5],264 ± 48 h
same,Tmax,[5],1 day days
same,Cmax,[5],3.6 ± 0.6 ng/g
same,Half-life,[2],312 ± 220 h
same,Cmax,[2],0.93 ± 0.20 ng/g
same,Tmax,[2],360 h
same,Half-life,"[1]; monoPAP gavage dose, about 50 mg/kg each, PFCA product in whole blood",288 ± 190 h
same,Tmax,[1]; [8],48 h
same,Cmax (ng/g),[1]; [9],(1.1 ± 0.27) ng/g
same,Half-life,[4]; [10],240 ± 48 h
same,Tmax,"[4]; diPAP IV dose, whole blood",48 h
same,Cmax,[4]; [7],6.2 ± 1.2 ng/g
